# In US20140200175A1, “SUPPRESSION OF TOXIN PRODUCTION OF C[…]” (University of Central Florida Research Foundation, Inc., priority 2012, published 2014):
# “Also recorded” adds a separate entry of the source.
# Assays:
# C. difficile = settings: added to the culture medium, concentration-dependent, reference (32); cited from earlier work
# tcdA = settings: 16.7 mM, mRNA harvested after 72 hours of growth
# C. difficile (VPI10463) [1] = test: Growth curve of C. difficile in rich medium (TYGSe), optical density at 600 nm; assay type: cell-based, Clostridium difficile; settings: VPI10463, rich medium plus 16.7 mM amino acid, 72 hour growth period
# [2] = tested on: C. difficile (VPI10463) toxin A and toxin B; test: Extracellular toxin in cell free supernatants by SDS-PAGE with GelCode Blue staining; assay type: cell-based, Clostridium difficile; settings: 16.7 mM; for toxin levels in media supernatants (band larger than 225 kDa): 72 hour growth period, 7.5% gel, versus control
# Procedure: FIG. 2 illustrates that toxin production occurs earlier and is increased with the addition of L-proline or glycine to the culture media of C. difficile, but is diminished with L-hydroxyproline. C. difficile (VPI10463) culture media was collected by centrifugation at the indicated time points. Cell free supernatants were filtered (0.2 μm filter) and equal volumes (50 μL) were separated by SDS-PAGE and stained overnight with GelCode Blue. Gel migration was compared with that of purified toxin A (List Biologicals).
# For analysis of extracellular toxins, 50 μL aliquots of cell free supernatant from each C. difficile culture across a 72 hour growth study was analyzed by sodium dodecyl sulfate-polyacrylamide gel electrophoresis (SDS-PAGE) (7.5% polyacrylamide). The separated proteins were visualized after staining overnight with GelCode Blue (Thermo Scientific, Waltham, Mass.).
# tcdB = settings: 16.7 mM, mRNA harvested after 72 hours of growth
# C. difficile (VPI10463) [3] = settings: stationary phase (24 to 72 hours), 16.7 mM; versus control and the other amino acids
# Procedure: Optical density (FIG. 1A) was followed for 72 hours after inoculation. Total protein (FIG. 1B) and extracellular protein (FIG. 1C) were quantified in cell free supernatants according to the method described by Bradford (46).
# Optical density measurements of cultures at 600 nm were determined using a Molecular Devices SpectraMax 190 96-well plate reader at the times indicated for each experiment. Cultures were centrifuged at 16,100×g for five minutes. The resulting cell free supernatants were filtered (0.2 μm) and assayed for protein as described by Bradford (46) using bovine serum albumin (Thermo Scientific, Rockford, Ill.) as a standard.
# C. difficile spore = settings: alongside taurocholate, reference (45); cited from earlier work
Structure (SMILES),intracellular toxin levels (C. difficile),reduction in tcdA transcription (tcdA; relative to control cells),growth (in words) (C. difficile (VPI10463) [1]),toxin levels in media supernatants (band larger than 225 kDa) [2],reduction in tcdB transcription (tcdB; relative to control cells),tcdA transcript relative to control cells (tcdA),tcdB transcript relative to control cells (tcdB),extracellular protein levels (C. difficile (VPI10463) [3]),toxin produced earlier ([2]; onset of toxin band),spore germination (C. difficile spore)
N[C@@H](CS)C(=O)O [L-cysteine],significantly reduced,,,,,,,,,
"O=C(O)[C@@H]1CC(O)CN1 (stereo partly drawn) [L-hydroxyproline, L-4-hydroxyproline]",,≥ 75%,largest increase in growth; also recorded: comparable growth,no band corresponding to toxin was visible,≥ 75%,,,,,
O=C(O)[C@@H]1CCCN1 [L-proline],significantly reduced,,,higher toxin levels than the control,,approximately three,approximately three,,,
NCC(=O)O [glycine],,,,higher toxin levels than the control,,nine,nine,significantly higher,approximately 24 hours,potent spore co-germinant
